Literature values, collected in patent US20180344745A1, “TREATMENT OF DEVELOPMENTAL DISORDERS WITH IMIDAZOLONE DERIVATIVES” (Ovid Therapeutics Inc., priority 2017, published 2018).

Conditions: smokers versus non-smokers

O=C1N=C(N2CCOCC2)CN1c1ccc(Cl)cc1 [imepitoin, 1-(4-chlorophenyl)-4-morpholino-imidazolin-2-one]
elimination: more rapidly eliminated in smokers than in non-smokers
